Our source for the IC50 values is ChEMBL document CHEMBL4400553, “Semisynthesis of epoxy-pimarane diterpenoids from kirenol and their FXa inhibition activities” (Bioorg Med Chem, 2019).

SMILES strings stand for the structures.

What is called IC50 is the concentration needed to halve the response being measured. A higher IC50 goes with lower potency.

The target of the assay is Coagulation factor X (Homo sapiens, UniProt P00742). Nature of the assay: Inhibition of human factor Xa using Z-D-Arg-Gly-Arg-pNA.2HCl as substrate preincubated for 15 mins followed by substrate addition by UV absorption analysis.
Chain of Coagulation factor X (P00742 41-179 limits assumed): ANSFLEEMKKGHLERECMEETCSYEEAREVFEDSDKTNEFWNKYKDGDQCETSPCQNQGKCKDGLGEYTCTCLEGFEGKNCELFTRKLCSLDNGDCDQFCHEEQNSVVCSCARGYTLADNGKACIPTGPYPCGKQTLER
Chain of Coagulation factor X (P00742 235-488 limits assumed): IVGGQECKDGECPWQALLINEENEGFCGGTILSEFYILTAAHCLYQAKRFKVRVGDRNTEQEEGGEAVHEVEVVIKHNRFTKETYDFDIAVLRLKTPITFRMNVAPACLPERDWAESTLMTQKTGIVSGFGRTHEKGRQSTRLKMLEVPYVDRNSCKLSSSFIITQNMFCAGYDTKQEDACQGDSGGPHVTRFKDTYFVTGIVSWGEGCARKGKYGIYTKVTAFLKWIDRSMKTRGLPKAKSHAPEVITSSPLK
As to `C[C@@]1(CO)C[C@@H](O)C[C@@]2(C)C3=C(CC[C@H]12)[C@H]1OC[C@H](O)[C@@]1(C)CC3`, inhibition was half-maximal at 27.9 µM (IC50). The value for `C[C@]12CC[C@@H]3[C@](CC[C@@H]4[C@](C)(CO)C[C@@H](O)C[C@]43C)(C1)O[C@H]2CO` was 6.1 µM; that for `C[C@@]1(CO)C=C2CC[C@@H]3[C@](C)(CO)C[C@@H](O)C[C@@]3(C)[C@@H]2CC1` was 0.96 µM. On to `C[C@@]1(CO)C[C@@H](O)C[C@]2(C)[C@@H]1CC[C@@]13O[C@H](CO)[C@@](C)(CC[C@@H]21)[C@H]3Br`, for which half-maximal inhibition (IC50) required 7.9 µM. Under `CC1(C)OC[C@@H]([C@]2(C)C=C3CC[C@@H]4[C@](C)(CO)C[C@@H](O)C[C@@]4(C)[C@@H]3CC2)O1` stands 7.2 µM. The value for `CC1(C)OC[C@@H]([C@@]2(C)CC[C@@H]3C4(CC[C@@H]5[C@](C)(CO)C[C@@H](O)C[C@@]35C)OC42)O1` (some centres not stated) was 18.5 µM. In the case of `C[C@@]1(CO)C[C@@H](O)C[C@]2(C)[C@@H]1CC[C@@]13O[C@@H](CO)[C@@](C)(CC[C@@H]21)[C@H]3Br`, the IC50 was determined as 4.7 µM. Under `C[C@]12CC[C@@H]3[C@](CC[C@@H]4[C@](C)(CO)C[C@@H](O)C[C@]43C)(C1)OC2` stands 7.4 µM. The value for `C[C@]12CC[C@@H]3[C@](CC[C@@H]4[C@](C)(CO)C[C@@H](O)C[C@]43C)(C1)OC2=O` was 1.7 µM. As for `C[C@@]1(CO)C[C@@H](O)C[C@@]2(C)[C@@H]3CC[C@@]4(C)[C@H](OC[C@@H]4O)C3=CC[C@H]12`, 17.8 µM corresponded to half-maximal inhibition (IC50). The value for `C[C@@]1(CO)C[C@@H](O)C[C@@]2(C)[C@@H]3CC[C@](C)([C@@H](O)CO)C=C3CC[C@H]12` [KIRENOL] was 2.5 µM. The value for `C[C@@]1(CO)C[C@@H](O)C[C@@]2(C)[C@@H]3CC[C@](C)(C(=O)O)C=C3CC[C@H]12` was 0.22 µM.
